According to ChEMBL document CHEMBL1201862, “PubChem BioAssay data set” (2004):
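Interpolation was linear, between the two tested concentrations surrounding the appropriate level; five concentrations were tested over 48 hours in 96-well plates. GI50: concentration for 50% inhibition of growth.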 Activity calls are given as the source filed them. Rule as the data show it: active = GI50 up to about 1.1 µM and inactive = higher.

Key:
Assay in all cases: inhibition of tumour cell growth, NCI panel, 48 h
M14 = system: M14
SF-539 = system: SF-539
KM-20L2 = system: KM-20L2
SN12C = system: SN12C
UACC-62 = system: UACC-62
HCT-15 = system: HCT-15
M19-MEL = system: M19-MEL
HCT-116 = system: HCT-116
U-251 = system: U-251
786-0 = system: 786-0
OVCAR-4 = system: OVCAR-4
SNB-19 = system: SNB-19
RPMI-8226 = system: RPMI-8226
SW-620 = system: SW-620
HCC 2998 = system: HCC 2998
SK-MEL-5 = system: SK-MEL-5

CCOC(=O)C12CCCC1(O)N(NC(N)=O)C(C)=C2C(=O)OC (centres undefined)
GI50 (M14): > 100 µM (inactive)
GI50 (SF-539): > 100 µM (inactive)
GI50 (KM-20L2): > 100 µM (inactive)
GI50 (SN12C): > 100 µM (inactive)
GI50 (UACC-62): > 100 µM (inactive)
GI50 (HCT-15): > 100 µM
GI50 (M19-MEL): > 100 µM (inactive)
GI50 (HCT-116): > 100 µM (inactive)
GI50 (U-251): > 100 µM (inactive)
GI50 (786-0): > 100 µM (inactive)
GI50 (OVCAR-4): > 100 µM (inactive)
GI50 (SNB-19): > 100 µM (inactive)
GI50 (RPMI-8226): > 100 µM (inactive)
GI50 (SW-620): > 100 µM (inactive)
GI50 (HCC 2998): > 100 µM (inactive)

O=C1CC[C@H](NC(=O)Cc2ccccc2)C(=O)N1 [ANTINEOPLASTON A10]
GI50 (M14): > 1250 µM (inactive)
GI50 (SF-539): > 1250 µM (inactive)
GI50 (KM-20L2): > 1250 µM (inactive)
GI50 (SN12C): > 1250 µM (inactive)
GI50 (UACC-62): > 1250 µM (inactive)
GI50 (HCT-15): > 1250 µM
GI50 (M19-MEL): > 1250 µM (inactive)
GI50 (HCT-116): > 1250 µM (inactive)
GI50 (U-251): > 1250 µM (inactive)
GI50 (786-0): > 1250 µM (inactive)
GI50 (OVCAR-4): > 1250 µM (inactive)
GI50 (SNB-19): > 1250 µM (inactive)
GI50 (RPMI-8226): > 1250 µM (inactive)
GI50 (SW-620): > 1250 µM (inactive)
GI50 (HCC 2998): > 1250 µM (inactive)

NC(=O)/N=C1/CCC2C3CCCC2C13
GI50 (M14): > 100 µM (inactive)
GI50 (SF-539): > 100 µM (inactive)
GI50 (KM-20L2): > 100 µM (inactive)
GI50 (SN12C): > 100 µM (inactive)
GI50 (UACC-62): > 100 µM (inactive)
GI50 (SK-MEL-5): > 100 µM (inactive)
GI50 (HCT-116): > 100 µM (inactive)
GI50 (U-251): > 100 µM (inactive)
GI50 (786-0): > 100 µM (inactive)
GI50 (OVCAR-4): > 100 µM (inactive)
GI50 (SNB-19): > 100 µM (inactive)
GI50 (RPMI-8226): > 100 µM (inactive)
GI50 (SW-620): > 100 µM (inactive)
GI50 (HCC 2998): > 100 µM (inactive)

COC(=O)c1ccc(C=C(C#N)C#N)cc1
GI50 (M14): 16.5 µM (inactive)
GI50 (SF-539): 19.5 µM (inactive)
GI50 (KM-20L2): 30.6 µM (inactive)
GI50 (SN12C): 19.3 µM (inactive)
GI50 (UACC-62): 20.8 µM (inactive)
GI50 (HCT-15): 35 µM
GI50 (SK-MEL-5): 17.9 µM (inactive)
GI50 (M19-MEL): 25.2 µM (inactive)
GI50 (HCT-116): 17.1 µM (inactive)
GI50 (U-251): 24.4 µM (inactive)
GI50 (786-0): 16.9 µM (inactive)
GI50 (OVCAR-4): 20.6 µM (inactive)
GI50 (SNB-19): 38.5 µM (inactive)
GI50 (RPMI-8226): 22.5 µM (inactive)
GI50 (SW-620): 21.3 µM (inactive)
GI50 (HCC 2998): 15.6 µM (inactive)

O=C1[C@@H]2C(c3ccccc3Br)=NO[C@@H]2C(=O)N1c1ccc(Cc2ccc(N3C(=O)[C@H]4C(c5ccccc5Br)=NO[C@H]4C3=O)cc2)cc1
GI50 (M14): > 100 µM (inactive)
GI50 (SF-539): > 100 µM (inactive)
GI50 (KM-20L2): > 100 µM (inactive)
GI50 (SN12C): > 100 µM (inactive)
GI50 (UACC-62): > 100 µM (inactive)
GI50 (HCT-15): > 100 µM
GI50 (SK-MEL-5): > 100 µM (inactive)
GI50 (M19-MEL): > 100 µM (inactive)
GI50 (U-251): > 100 µM (inactive)
GI50 (786-0): > 100 µM (inactive)
GI50 (OVCAR-4): > 100 µM (inactive)
GI50 (RPMI-8226): > 100 µM (inactive)
GI50 (SW-620): > 100 µM (inactive)
GI50 (HCC 2998): > 100 µM (inactive)
